Here are results for 17 compounds from US8394786B2, “Quinazoline derivatives” (Janssen Pharmaceutica N.V., priority 2003, dated 2013).

A word on the melting point: it is the temperature, or range, at which the solid turns liquid.

Series [1] concerns SKOV3 cells. Put plainly: Serum starved proliferation assay on the ovarian carcinoma SKOV3 cells (C3). The note with it: Homo sapiens, SK-OV-3, 72 h, EGF stimulated (100 ng/ml, 72 hours, serum free) or 72 hours with compounds; MTT cell viability assay; read-out: SKOV3 cell (C3): pIC50 (converted). Type of series: cell-based. An outline of the steps: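 SKOV3 cells grown 24 h in 10% FCS, then treated with compound under serum-free conditions (37 °C, 5% CO2) and stimulated 72 h with EGF at 100 ng/ml final; read-out by MTT viability. Alternative format: compound for 72 h after the same 24 h FCS step, also by MTT.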
A general note: Tetrazolium assays rely on reduction of a dye to a coloured formazan, in cell work by metabolically active cells.

In series [2] the target is T1, EGFR (Homo sapiens, UniProt P00533). The series can be described thus: In vitro inhibition of EGFR, Flash Plate or glass-fiber filter technology (C2). Also noted: 0.5 μg EGFR-kinase domain/well. Type of series: biochemical. To be noted: EGFR-kinase domain, 5.0 μM unlabeled ATP, read-out: Kinase activity.(C2): pIC50 (converted). An outline of the steps: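 EGFR kinase domain (0.5 μg/well) phosphorylated poly(GT) with 5.0 μM ATP plus AT^33P, dose response 1·10^−6 to 1·10^−10 M. Flash Plate: biotin-poly(GT), Tris pH 8.0, 30° C, 60 min, scintillation counting. Filter: Tris pH 7.5 with MnCl2, 25° C, 10 min, 33P counted on glass-fiber filter by phosphorimaging.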
Target sequence in this assay (P00533 712-979 limits assumed): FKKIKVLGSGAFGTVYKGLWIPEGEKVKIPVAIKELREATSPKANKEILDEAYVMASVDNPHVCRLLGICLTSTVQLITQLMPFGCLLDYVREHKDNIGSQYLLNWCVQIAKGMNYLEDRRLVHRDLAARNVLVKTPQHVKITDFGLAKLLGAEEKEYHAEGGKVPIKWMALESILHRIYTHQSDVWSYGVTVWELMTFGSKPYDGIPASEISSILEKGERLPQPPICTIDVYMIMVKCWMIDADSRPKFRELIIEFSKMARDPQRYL

Series [3] addresses T1, EGFR. Put plainly: ELISA assay of EGFR tyrosine kinase activity (C4). Type of series: biochemical. To be noted: poly(Glu, Tyr) coated plate, 5 μM ATP, room temperature 10 min. The protocol:
The EGFR ELISA is generally described by Yang, E. B. et al., 2001, Biochimica et Biophysica Acta, 1550; 144.
For the determination of EGFR tyrosine kinase activity, 100 μl of 0.4 μg/ml poly(Glu, Tyr) in PBS was coated per well on a 96-well microplate at 37° C. overnight. […] After washing three times with PBS the plates were either used immediately or stored at 4° C. Prior to the determination of the EGFR tyrosine kinase activity, the coated plates were washed two times with PBS. Next, to each well 88 μl of an ATP dilution (50 mM Tris HCl pH 8.0, 10 mM MgCl2, 100 μM Na3VO4, 1 mM DTT, 5 μM ATP) and 2 μl with various concentrations of the compounds to be tested, were added. The EGFR tyrosine kinase-catalysed reaction was started by the addition of 10 μl of diluted EGFR (dilution→0.05 μg per well enzyme diluted in 50 mM TrisHCl pH 8.0+0.1% BSA). After incubation at room temperature for 10 min, the reaction was stopped by washing five times with PBS with 0.1% Tween 20. Subsequently […] of recombinant anti-phosphotyrosine horseradish peroxidase conjugate (1:2500) in BSA (10 mg/ml in PBS) was added. After incubation at room temperature for 1 h, the microplate was washed five times with PBS/Tween 20. After the microplate was incubated with 100 μl of TMB-ELISA (1-step Ultra TMB-ELISA, Pierce) until colour development, 100 μl of 0.5 M H2SO4 was added to stop the reaction, and it was read in a microplate reader at 450-655 nm.
Target sequence in this assay (P00533 25-1210): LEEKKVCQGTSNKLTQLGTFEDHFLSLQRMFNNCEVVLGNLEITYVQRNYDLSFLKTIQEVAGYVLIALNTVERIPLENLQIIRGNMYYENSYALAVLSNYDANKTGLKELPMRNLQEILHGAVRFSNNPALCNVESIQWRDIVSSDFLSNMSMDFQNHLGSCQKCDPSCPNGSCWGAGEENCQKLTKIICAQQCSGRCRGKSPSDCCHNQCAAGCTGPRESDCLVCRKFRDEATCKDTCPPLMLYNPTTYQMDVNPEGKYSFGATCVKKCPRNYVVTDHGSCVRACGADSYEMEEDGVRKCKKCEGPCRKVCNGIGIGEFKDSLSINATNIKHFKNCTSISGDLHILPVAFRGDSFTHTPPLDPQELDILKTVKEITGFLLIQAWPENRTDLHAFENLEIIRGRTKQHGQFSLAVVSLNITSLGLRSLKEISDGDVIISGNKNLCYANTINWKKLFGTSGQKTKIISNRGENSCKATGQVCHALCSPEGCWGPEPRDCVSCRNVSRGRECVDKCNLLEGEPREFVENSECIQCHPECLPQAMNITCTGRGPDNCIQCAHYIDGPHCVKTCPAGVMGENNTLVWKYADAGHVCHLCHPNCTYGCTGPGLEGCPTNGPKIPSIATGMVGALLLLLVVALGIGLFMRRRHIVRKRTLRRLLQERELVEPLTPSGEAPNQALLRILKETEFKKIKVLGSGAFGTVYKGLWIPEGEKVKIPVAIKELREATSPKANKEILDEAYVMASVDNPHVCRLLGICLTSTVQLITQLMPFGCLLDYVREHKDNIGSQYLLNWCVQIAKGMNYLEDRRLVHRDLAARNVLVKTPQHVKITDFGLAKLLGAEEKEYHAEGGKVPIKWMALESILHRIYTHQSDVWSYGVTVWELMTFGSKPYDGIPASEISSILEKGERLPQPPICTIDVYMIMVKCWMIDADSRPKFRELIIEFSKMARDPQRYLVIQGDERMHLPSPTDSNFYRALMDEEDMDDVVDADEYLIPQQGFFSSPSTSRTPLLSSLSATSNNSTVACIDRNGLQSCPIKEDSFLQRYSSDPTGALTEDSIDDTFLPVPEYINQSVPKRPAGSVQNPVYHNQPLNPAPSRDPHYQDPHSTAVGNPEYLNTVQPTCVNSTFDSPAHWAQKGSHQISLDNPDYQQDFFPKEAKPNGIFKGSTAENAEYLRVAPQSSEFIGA
Background: ELISA stands for enzyme-linked immunosorbent assay.

Series [4] deals with A431 cells. Put plainly: Proliferation assay on the squamous carcinoma cell line A431 cells (C5). It is filed as cell-based. The note with it: Homo sapiens, A-431; 72 hours with compounds; MTT cell viability assay; read-out: A431 cell (C5): pIC50 (converted). The protocol: The squamous carcinoma cell line (A431) was used in a cell proliferation assay, to assess the inhibitory effect of the compounds in whole cells.
In a first step the A431 cells were incubated for 24 hours in the presence of 10% FCS serum. In the second step the cells were incubated for 72 hours with the compounds to be tested at a final concentration of 100 ng/ml. The effect of the compounds on the cell proliferation was finally assessed in a standard MTT cell viability assay.

As to `COC(=O)c1ccc2c(c1)Nc1ncnc3cc(OC)c(cc13)OCCCCCCO2` [Compound 10, 4,6-ethanediylidene-19H-pyrimido[4,5-b][6,13,1]benzodioxaazacyclo-pentadecine-17-carboxylic acid, 8,9,10,11,12,13-hexahydro-20-methoxy-, methyl ester], the IC50 in series [1] is greater than 10000 nM; in series [2], 50.1 nM; in series [3] it was greater than 1000 nM; in series [4], greater than 3160 nM.
Regarding `COc1cc2ncnc3c2cc1OCCCCCCOc1ccc(C(=O)O)cc1N3` [Compound 11, 4,6-ethanediylidene-19H-pyrimido[4,5-b][6,13,1]benzodioxaazacyclo-pentadecine-17-carboxylic acid, 8,9,10,11,12,13-hexahydro-20-methoxy-], the IC50 in series [1] was greater than 10000 nM; in series [2], greater than 10000 nM; in series [3] it was greater than 1000 nM; in series [4] it was greater than 3160 nM.
For the compound `COc1cc2ncnc3c2cc1OCCCCCCOc1ccc(C(=O)N2CCCC2)cc1N3` [Compound 12, pyrrolidine, 1-[(8,9,10,11,12,13-hexahydro-20-methoxy-4,6-ethane-diylidene-19H-pyrimido[4,5-b][6,13,1]benzodioxaazacyclopentadecin-17-yl)carbonyl]-], the IC50 is greater than 10000 nM in series [1], greater than 10000 nM in series [2], greater than 1000 nM in series [3] and greater than 3160 nM in series [4].
Regarding `COc1cc2ncnc3c2cc1OCCCCCCOc1ccc(C#N)cc1N3` [Compound 13, 4,6-ethanediylidene-19H-pyrimido[4,5-b][6,13,1]benzodioxaazacyclo-pentadecine-17-carbonitrile, 8,9,10,11,12,13-hexahydro-20-methoxy-], the IC50 in series [1] was greater than 10000 nM; in series [2], 316 nM; in series [3], greater than 1000 nM; in series [4] it was greater than 3160 nM.
For `COc1cc2ncnc3c2cc1OCCCCCCOc1ccc(C(=O)N2CCOCC2)cc1N3` [Compound 14, morpholine, 4-[(8,9,10,11,12,13-hexahydro-20-methoxy-4,6-ethane-diylidene-19H-pyrimido[4,5-b][6,13,1]benzodioxaazacyclopentadecin-17-yl)carbonyl]-], in that order: greater than 10000 nM, greater than 10000 nM, greater than 1000 nM and greater than 3160 nM.
As to `Oc1cc2ncnc3c2cc1OCCCCCCOc1ccc(Br)cc1N3` [Compound 16, 4,6-ethanediylidene-19H-pyrimido[4,5-b][6,13,1]benzodioxaazacyclo-pentadecin-20-ol, 17-bromo-8,9,10,11,12,13-hexahydro-], the IC50 was 2510 nM in series [2] and greater than 1000 nM in series [3].
As to `Brc1ccc2c(c1)Nc1ncnc3cc(OCCCN4CCOCC4)c(cc13)OCCCCCCO2` [Compound 17, 4,6-ethanediylidene-19H-pyrimido[4,5-b][6,13,1]benzodioxaazacyclo-pentadecine, 17-bromo-8,9,10,11,12,13-hexahydro-20-[3-(4-morpholinyl)propoxy]-acetic acid], the IC50 in series [1] was 8320 nM; in series [2], 39.8 nM; in series [3], 269 nM; in series [4], 2510 nM.
Consider `Brc1ccc2c(c1)Nc1ncnc3ccc(cc13)OCCCCCCO2` [Compound 18, 4,6-ethanediylidene-19H-pyrimido[4,5-b][6,13,1]benzodioxaazacyclo-pentadecine, 17-bromo-8,9,10,11,12,13-hexahydro-], for which the IC50 was greater than 10000 nM in series [1], 79.4 nM in series [2] and greater than 1000 nM in series [3].
For `COc1cc2ncnc3c2cc1OCCCCCCCc1ccc(Br)cc1N3` [Compound 21, 4,6-ethanediylidenepyrimido[4,5-b][6,1]benzoxaazacyclopentadecine, 17-bromo-8,9,10,11,12,13,14,19-octahydro-20-methoxy-], the IC50 is 813 nM in series [1], 10 nM in series [2], 158 nM in series [3] and greater than 3160 nM in series [4].
Consider `COc1cc2ncnc3c2cc1OCCCCCCCCON=Cc1ccc(Cl)cc1N3` [Compound 24, 4,6-ethanediylidene-23H-pyrimido[4,5-b][6,15,1,16]benzo-dioxadiazacyclononadecine, 21-chloro-8,9,10,11,12,13,14,15-octahydro-24-methoxy-], for which the melting point fell in the range of 127.2 to 132.2 °C. Further, the IC50 in series [1] is 3160 nM. In series [2], the IC50 is 20 nM. Moreover, the IC50 in series [4] was greater than 3160 nM.
Regarding `COc1cc2ncnc3c2cc1OCCCCCCOc1ccc(-c2ccccc2)cc1N3` [Compound 34, 4,6-ethanediylidene-19H-pyrimido[4,5-b][6,13,1]benzodioxaazacyclopentadecine, 8,9,10,11,12,13-hexahydro-20-methoxy-17-phenyl-], the IC50 in series [1] was greater than 10000 nM; in series [2], 63.1 nM; in series [4], greater than 3160 nM.
For the compound `COc1cc2ncnc3c2cc1OCCCCCCOc1ccc(-c2cccc(C#N)c2)cc1N3` [Compound 35, benzonitrile, 3-(8,9,10,11,12,13-hexahydro-20-methoxy-4,6-ethanediylidene-19H-pyrimido[4,5-b][6,13,1]benzodioxaazacyclopentadecin-17-yl)-], the IC50 was greater than 10000 nM in series [1], 3980 nM in series [2] and greater than 3160 nM in series [4].
For `COc1cc2ncnc3c2cc1OCCCCCCNC(=O)c1ccc(Cl)cc1N3` [Compound 36, 4,6-ethanediylidene-8H-pyrimido[4,5-b][6,1,13]benzoxadiazacyclohexadecin-15(20H)-one, 18-chloro-9,10,11,12,13,14-hexahydro-21-methoxy-], in that order: 166 nM, 15.8 nM and greater than 3160 nM.
As for `COc1cc2ncnc3c2cc1OCCCCCCOc1cc(Cl)ccc1N3` [Compound 37, 4,6-ethanediylidene-19H-pyrimido[4,5-b][6,13,1]benzodioxaazacyclopentadecine, 16-chloro-8,9,10,11,12,13-hexahydro-20-methoxy-], the IC50 in series [1] is greater than 10000 nM; in series [2], greater than 10000 nM; in series [4], greater than 3160 nM.
For `COc1cc2ncnc3c2cc1OCCCCCOCCc1ccc(Cl)cc1N3` [Compound 38, 4,6-ethanediylidene-8H,14H-pyrimido[4,5-b][6,12,1]benzodioxaazacyclohexadecine, 18-chloro-9,10,11,12,15,20-hexahydro-21-methoxy-], the values for the IC50 in series [1], in series [2] and in series [4] were 126 nM, 20 nM and 1260 nM, respectively.
The corresponding values for `COc1cc2ncnc3c2cc1OCCOCCOCCc1ccc(Cl)cc1N3` [Compound 39, 4,6-ethanediylidene-14H-pyrimido[4,5-b][6,9,12,1]benzotrioxaazacyclohexadecine, 18-chloro-8,9,11,12,15,20-hexahydro-21-methoxy-] are 200 nM, 20 nM and 1580 nM.
Turning to `COc1cc2ncnc3c2cc1OCCCC(=O)NCCCc1ccc(Cl)cc1N3` [Compound 40, 4,6-ethanediylidene-8H-pyrimido[4,5-b][6,1,11]benzoxadiazacyclohexadecin-11(12H)-one, 18-chloro-9,10,13,14,15,20-hexahydro-21-methoxy-], the IC50 in series [1] was 50.1 nM; in series [2] it was 31.6 nM; in series [4], 631 nM.
